Test results: patent publication US20250228239A1, “MOLECULES HAVING PESTICIDAL UTILITY, AND INTERMEDIATES, COMPOSITIONS, AND PROCESSES, RELATED THERETO” (priority 2024, published 2025)
Read-outs that look alike come from different tables or passages of the source.

Assays:
[1] = system: Beet Armyworm (Spodoptera exigua, LAPHEG); assay: Bioassays on Beet Armyworm (BAW), 128-well diet tray assay; assay type: in vivo; conditions: Spodoptera exigua, Beet Armyworm
How it was run: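 Diet-overlay assay: 50 μg/cm^2 compound applied in 90:10 acetone-water to artificial diet, allowed to dry, then infested with 1–5 L2 larvae/well; 8 wells/compound; covered, vented; 25° C., 14:10 L:D, 5–7 d; % mortality per well, averaged.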

[2] = system: Cabbage Looper (Trichoplusia ni, TRIPNI); assay: Bioassays on Cabbage Looper (CL), 128-well diet tray assay; assay type: in vivo; conditions: Trichoplusia ni, Cabbage Looper
How it was run: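 Second-instar larvae (1–5 per well) placed on artificial diet surface-treated with 50 μg/cm^2 test molecule applied in 90:10 acetone-water and dried. Held at 25° C., 14:10 light-dark, for five to seven days. Percent mortality scored per well and averaged over eight wells.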

[3] = Table ABC / ABC-DP rating, read-out: BAW rating
[4] = Table ABC / ABC-DP rating, read-out: CL rating

| SMILES | pest or weed control at 50 µg/cm2 ([1]; rating class, read-out: BAW) | pest or weed control at 50 µg/cm2 ([2]; rating class, read-out: CL) | pest or weed control at 50 µg/cm2 [1, 3] | pest or weed control at 50 µg/cm2 [2, 4] |
| --- | --- | --- | --- | --- |
| O=C(CCl)Nc1c(F)ccc(NC(=O)c2cc(NC(=O)[C@H]3[C@H](c4ccc(F)c(C(F)(F)F)c4)C3(Cl)Cl)ccc2Cl)c1F [F1726, 2-Chloro-N-(3-(2-chloroacetamido)-2,4-difluorophenyl)-5-((1R,3R)-2,2-dichloro-3-(4-fluoro-3-(trifluoromethyl)phenyl)cyclopropane-1-carboxamido)benzamide] | 50 to 100% | 50 to 100% |  |  |
| CCO[C@@H](C)C(=O)Nc1c(F)ccc(NC(=O)c2cc(NC(=O)[C@H]3[C@H](c4ccc(F)c(C(F)(F)F)c4)C3(Cl)Cl)ccc2Cl)c1F [F1731, 2-Chloro-5-((1R,3R)-2,2-dichloro-3-(4-fluoro-3-(trifluoromethyl)phenyl)cyclopropane-1-carboxamido)-N-(3-((S)-2-ethoxypropanamido)-2,4-difluorophenyl)benzamide] | 50 to 100% | 50 to 100% |  |  |
| CCO[C@H](C)C(=O)Nc1c(F)ccc(NC(=O)c2cc(NC(=O)[C@H]3[C@H](c4ccc(F)c(C(F)(F)F)c4)C3(Cl)Cl)ccc2Cl)c1F [F1732, 2-Chloro-5-((1R,3R)-2,2-dichloro-3-(4-fluoro-3-(trifluoromethyl)phenyl)cyclopropane-1-carboxamido)-N-(3-((R)-2-ethoxypropanamido)-2,4-difluorophenyl)benzamide] | 50 to 100% | 50 to 100% |  |  |
| CCO[C@@H](C)C(=O)Nc1c(F)ccc(NC(=O)c2cc(NC(=O)[C@H]3[C@H](c4ccc(Cl)c(Cl)c4)C3(Cl)Cl)ccc2Cl)c1F [F1733, 2-Chloro-5-((1R,3R)-2,2-dichloro-3-(3,4-dichlorophenyl)cyclopropane-1-carboxamido)-N-(3-((S)-2-ethoxypropanamido)-2,4-difluorophenyl)benzamide] | 50 to 100% | 50 to 100% |  |  |
| CCO[C@H](C)C(=O)Nc1c(F)ccc(NC(=O)c2cc(NC(=O)[C@H]3[C@H](c4ccc(Cl)c(Cl)c4)C3(Cl)Cl)ccc2Cl)c1F [F1734, 2-Chloro-5-((1R,3R)-2,2-dichloro-3-(3,4-dichlorophenyl)cyclopropane-1-carboxamido)-N-(3-((R)-2-ethoxypropanamido)-2,4-difluorophenyl)benzamide] | 50 to 100% | 50 to 100% |  |  |
| O=C(Nc1ccc(F)c(NC(=O)C(F)(F)C(F)(F)C(F)(F)F)c1F)c1cc(NC(=O)[C@H]2[C@H](c3ccc(F)c(Cl)c3)C2(Cl)Cl)ccc1Cl [F1741, 2-Chloro-5-((1R,3R)-2,2-dichloro-3-(3-chloro-4-fluorophenyl)cyclopropane-1-carboxamido)-N-(2,4-difluoro-3-(2,2,3,3,4,4,4-heptafluorobutanamido)phenyl)benzamide] | 50 to 100% | 50 to 100% |  |  |
| CC1OC1C(=O)Nc1c(F)ccc(NC(=O)c2cc(NC(=O)[C@H]3[C@H](c4ccc(F)c(C(F)(F)F)c4)C3(Cl)Cl)ccc2Cl)c1F (stereo partly drawn) [F1748, N-(3-(2-Chloro-5-((1R,3R)-2,2-dichloro-3-(4-fluoro-3-(trifluoromethyl)phenyl)cyclopropane-1-carboxamido)benzamido)-2,6-difluorophenyl)-3-methyloxirane-2-carboxamide] | 50 to 100% | 50 to 100% |  |  |
| O=C(Nc1ccc(F)cc1F)c1cc(NC(=O)[C@@H]2[C@@H](c3cc(F)c(F)c(F)c3)C2(Cl)Cl)ccc1Cl [F1749, 2-Chloro-5-((1S,3S)-2,2-dichloro-3-(3,4,5-trifluorophenyl)cyclopropane-1-carboxamido)-N-(2,4-difluorophenyl)benzamide] | 50 to 100% | 50 to 100% |  |  |
| O=C(Nc1ccc(F)cc1F)c1cc(NC(=O)[C@H]2[C@H](c3ccc(F)c(F)c3)C2(Cl)Cl)ccc1Cl [F1750, 2-Chloro-5-((1R,3R)-2,2-dichloro-3-(3,4-difluorophenyl)cyclopropane-1-carboxamido)-N-(2,4-difluorophenyl)benzamide] | 50 to 100% | 50 to 100% |  |  |
| O=C(Nc1ccc(F)cc1F)c1cc(NC(=O)[C@@H]2[C@@H](c3ccc(F)c(F)c3)C2(Cl)Cl)ccc1Cl [F1751, 2-Chloro-5-((1S,3S)-2,2-dichloro-3-(3,4-difluorophenyl)cyclopropane-1-carboxamido)-N-(2,4-difluorophenyl)benzamide] | 50 to 100% | 50 to 100% |  |  |
| COC(=O)C(=O)Nc1c(F)ccc(NC(=O)c2cc(NC(=O)[C@H]3[C@H](c4ccc(F)c(C(F)(F)F)c4)C3(Cl)Cl)ccc2Cl)c1F [F1753, Methyl 2-((3-(2-chloro-5-((1R,3R)-2,2-dichloro-3-(4-fluoro-3-(trifluoromethyl)phenyl)cyclopropane-1-carboxamido)benzamido)-2,6-difluorophenyl)amino)-2-oxoacetate] | 50 to 100% | 50 to 100% |  |  |
| CC(=O)C(=O)Nc1c(F)ccc(NC(=O)c2cc(NC(=O)[C@H]3[C@H](c4ccc(F)c(C(F)(F)F)c4)C3(Cl)Cl)ccc2Cl)c1F [F1754, 2-Chloro-5-((1R,3R)-2,2-dichloro-3-(4-fluoro-3-(trifluoromethyl)phenyl)cyclopropane-1-carboxamido)-N-(2,4-difluoro-3-(2-oxopropanamido)phenyl)benzamide] | 50 to 100% | 50 to 100% |  |  |
| CCC(C#N)C(=O)Nc1c(F)ccc(NC(=O)c2cc(NC(=O)[C@H]3[C@H](c4ccc(F)c(C(F)(F)F)c4)C3(Cl)Cl)ccc2Cl)c1F (stereo partly drawn) [F1756, 2-Chloro-N-(3-(2-cyanobutanamido)-2,4-difluorophenyl)-5-((1R,3R)-2,2-dichloro-3-(4-fluoro-3-(trifluoromethyl)phenyl)cyclopropane-1-carboxamido)benzamide] | 50 to 100% | 50 to 100% |  |  |
| CCOC(CC)C(=O)Nc1c(F)ccc(NC(=O)c2cc(NC(=O)[C@H]3[C@H](c4ccc(F)c(C(F)(F)F)c4)C3(Cl)Cl)ccc2Cl)c1F (stereo partly drawn) [F1757, 2-Chloro-5-((1R,3R)-2,2-dichloro-3-(4-fluoro-3-(trifluoromethyl)phenyl)cyclopropane-1-carboxamido)-N-(3-(2-ethoxybutanamido)-2,4-difluorophenyl)benzamide] | 50 to 100% | 50 to 100% |  |  |
| CCNc1c(F)ccc(NC(=O)c2cc(NC(=O)[C@H]3[C@H](c4ccc(F)c(C(F)(F)F)c4)C3(Cl)Cl)ccc2Cl)c1F [F1762, 2-Chloro-5-((1R,3R)-2,2-dichloro-3-(4-fluoro-3-(trifluoromethyl)phenyl)cyclopropane-1-carboxamido)-N-(3-(ethylamino)-2,4-difluorophenyl)benzamide] | 50 to 100% | 50 to 100% |  |  |
| O=C(Nc1c(F)ccc([N+](=O)[O-])c1F)c1cc(NC(=O)[C@H]2[C@H](c3cc(Cl)c(Cl)c(Cl)c3)C2(Cl)Cl)cc(F)c1F [F1765, 5-((1R,3R)-2,2-Dichloro-3-(3,4,5-trichlorophenyl)cyclopropane-1-carboxamido)-N-(2,6-difluoro-3-nitrophenyl)-2,3-difluorobenzamide] | 50 to 100% | 50 to 100% |  |  |
| Nc1ccc(F)c(NC(=O)c2cc(NC(=O)[C@H]3[C@H](c4cc(Cl)c(Cl)c(Cl)c4)C3(Cl)Cl)cc(F)c2F)c1F [F1770, N-(3-Amino-2,6-difluorophenyl)-5-((1R,3R)-2,2-dichloro-3-(3,4,5-trichlorophenyl)cyclopropane-1-carboxamido)-2,3-difluorobenzamide] |  |  | 50 to 100% | 50 to 100% |
| O=C(COC(F)(F)F)Nc1c(F)ccc(NC(=O)c2cc(NC(=O)[C@H]3[C@H](c4cc(F)cc(C(F)(F)F)c4)C3(Cl)Cl)ccc2Cl)c1F [F1772, 2-Chloro-5-((1R,3R)-2,2-dichloro-3-(3-fluoro-5-(trifluoromethyl)phenyl)cyclopropane-1-carboxamido)-N-(2,4-difluoro-3-(2-(trifluoromethoxy)acetamido)phenyl)benzamide] |  |  | 50 to 100% | 50 to 100% |
| CC(OC(F)(F)F)C(=O)Nc1c(F)ccc(NC(=O)c2cc(NC(=O)[C@H]3[C@H](c4cc(F)cc(C(F)(F)F)c4)C3(Cl)Cl)ccc2Cl)c1F (stereo partly drawn) [F1773, 2-Chloro-5-((1R,3R)-2,2-dichloro-3-(3-fluoro-5-(trifluoromethyl)phenyl)cyclopropane-1-carboxamido)-N-(2,4-difluoro-3-(2-(trifluoromethoxy)propanamido)phenyl)benzamide] |  |  | 50 to 100% | 50 to 100% |
| O=C(COC(F)(F)F)Nc1ccc(F)c(NC(=O)c2cc(NC(=O)[C@H]3[C@H](c4cc(Cl)c(Cl)c(Cl)c4)C3(Cl)Cl)cc(F)c2F)c1F [F1777, 5-((1R,3R)-2,2-Dichloro-3-(3,4,5-trichlorophenyl)cyclopropane-1-carboxamido)-N-(2,6-difluoro-3-(2-(trifluoromethoxy)acetamido)phenyl)-2,3-difluorobenzamide] |  |  | 50 to 100% | 50 to 100% |
| O=C(Nc1c(F)ccc(NC(=O)C2CCCO2)c1F)c1cc(NC(=O)[C@H]2[C@H](c3cc(Cl)c(Cl)c(Cl)c3)C2(Cl)Cl)cc(F)c1F (stereo partly drawn) [F1778, N-(3-(5-((1R,3R)-2,2-Dichloro-3-(3,4,5-trichlorophenyl)cyclopropane-1-carboxamido)-2,3-difluorobenzamido)-2,4-difluorophenyl)tetrahydrofuran-2-carboxamide] |  |  | 50 to 100% | 50 to 100% |
